Reference: patent publication US20110123530A1, “COMPOSITIONS AND METHODS FOR TREATING AND DIAGNOSING ASTHMA” (priority 2008, published 2011)

Experiments:
subjects with asthma = assay: Randomized controlled trial of inhaled fluticasone or placebo: FEV1 by spirometry; assay type: in vivo, human; details: for Improvement in FEV1 as compared to subjects treated with placebo: inhaled fluticasone, 4 and 8 weeks; for ΔFEV1 with fluticasone at 4 weeks / ΔFEV1 with fluticasone 8 weeks: asthma, inhaled fluticasone 500 μg twice daily, mean ± SD
Protocol: “Forced expiratory volume (FEV1)” refers to a standard test that measures the volume of air expelled in the first second of a forced expiration. […] To perform spirometry, a person inhales deeply, closes the mouth tightly around the tube and then exhales through the tubing while measurements are taken. The volume of air exhaled, and the length of time each breath takes is recorded and analyzed. Spirometry results are expressed as a percentage. Examples of normal spirometry results include a FEV1 of 75 percent of vital capacity after one second. An example of abnormal spirometry results include a reading of less than 80 percent of the normal predicted value. An abnormal result usually indicates the presence of some degree of obstructive lung disease such as asthma, emphysema or chronic bronchitis, or restrictive lung disease such as pulmonary fibrosis. For example, FEV1 values (percentage of predicted) can be used to classify the obstruction that may occur with asthma and other obstructive lung diseases like emphysema or chronic bronchitis: FEV1 […] to 79 percent predicted=mild obstruction, FEV1 40 percent to 59 percent predicted=moderate obstruction, and FEV1 less than 40 percent predicted=severe obstruction. Thirty-two of the subjects with asthma had also been enrolled in a double-blind randomized controlled clinical trial of inhaled fluticasone (500 μg, twice daily, N=19) or matched placebo (N=13) (ClinicalTrials.gov Identifier: NCT00187499). The trial was designed to determine the effects of inhaled steroid (fluticasone) on airway gene expression and to relate gene expression changes to improvements in lung function. The asthma subjects in the clinical trial had undergone baseline bronchoscopy and had been randomized to receive study medication before undergoing repeat bronchoscopy one week later after starting study drug. Asthma subjects continued study medication for a total of 8 weeks. Healthy control subjects and smokers were enrolled in one of three cross-sectional studies, which comprised two visits each, the first for characterization and the second for bronchoscopy 1 week later. Thirty-five subjects had adequate baseline bronchoscopy, and 32 had RNA available from epithelial brushings at both bronchoscopies. Lung function was measured (by spirometry) after 4 weeks and 8 weeks on study medication, and a final spirometry was completed after a one week run-out. Methods for bronchoscopy, epithelial brushing, bronchoalveaolar lavage, spirometry, and sample handling were identical across all studies. Bronchoalveolar lavage (BAL) was performed by instilling 4 aliquots of 50 ml of sterile saline into either the lingula or right middle lobe, with recovery by suction. Cell counts were performed using a hemocytometer and Turks solution (1% glacial acetic acid and 0.01% gentian violet in distilled H2O). Then BAL cell differentials were performed on cytocentrifuged preparations using the Shandon Kwik-Diff stain kit (Thermo Fisher Scientific, Waltham Mass.). Thirty-two of the subjects with asthma were also enrolled in a double-blind randomized controlled clinical trial of inhaled fluticasone (500 mcg BID) or matched placebo. In addition to the inclusion criteria above, these subjects were also required to have either asthma symptoms on 2 or more days per week, or β-agonist use on 2 or more days per week, or FEV1<85% predicted. Subjects in the clinical trial underwent a baseline visit and baseline bronchoscopy as described above, were randomized to receive study medication and underwent repeat bronchoscopy one week later. Then, they continued study medication for a total of 8 weeks with scheduled re-assessment of spirometry and methacholine challenge testing. […]

[1] = tested on: IL-4/13 signature genes in bronchial airway epithelium; assay: Microarray analysis of bronchial epithelial brushings at baseline and after one week of ICS treatment; assay type: in vivo, human
Description: (A) Periostin expression; (B) PRR4 expression; (C) RUNX2 expression.
We studied biological samples stored in the Airway Tissue Bank at the University of California, San Francisco (UCSF) that had been collected during bronchoscopy performed for research purposes in healthy and asthmatic volunteers. Research bronchoscopy had included collection of epithelial brushings, bronchoalveolar lavage (BAL) and bronchial biopsies using specific methods previously described. BAL cell counts and differentials had been performed and databased, and macrophages had been sorted from BAL fluid using flow cytometry. Four to six bronchial biopsies had been obtained from 2nd-through 5th-order carinae (contralateral to the brushing site), formalin-fixed, and then paraffin-embedded in isotropic uniform random orientation to enable quantitative measures of inflammation and remodeling using methods of design-based stereology. An additional 2 bronchial biopsies had been homogenized and processed for RNA using the Qiagen RNeasy minikit (Qiagen Inc., Valencia, Calif.). RNA extracted from epithelial brushings, homogenates of bronchial biopsies, and lavage macrophages had been quality assured and aliquoted for future microrray- and PCR-based gene profiling. All research bronchoscopy studies had been approved by the UCSF Committee on Human Research (CHR), written informed consent had been obtained from all subjects, and all studies had been performed in accordance with the principles expressed in the Declaration of Helsinki The Airway Tissue Bank procedures were also reviewed and approved by UCSF's CHR. Samples of epithelial brushings and macrophages from this tissue bank have been used in previously reported studies. Most recently, microarray analyses of differentially expressed genes in epithelial brushings in asthmatic subjects have been reported by us.
Thirty-two of the subjects with asthma had also been enrolled in a double-blind randomized controlled clinical trial of inhaled fluticasone (500 μg, twice daily, N=19) or matched placebo (N=13) (ClinicalTrials.gov Identifier: NCT00187499). The trial was designed to determine the effects of inhaled steroid (fluticasone) on airway gene expression and to relate gene expression changes to improvements in lung function. The asthma subjects in the clinical trial had undergone baseline bronchoscopy and had been randomized to receive study medication before undergoing repeat bronchoscopy one week later after starting study drug. Asthma subjects continued study medication for a total of 8 weeks. Healthy control subjects and smokers were enrolled in one of three cross-sectional studies, which comprised two visits each, the first for characterization and the second for bronchoscopy 1 week later. Thirty-five subjects had adequate baseline bronchoscopy, and 32 had RNA available from epithelial brushings at both bronchoscopies. Lung function was measured (by spirometry) after 4 weeks and 8 weeks on study medication, and a final spirometry was completed after a one week run-out. […]
Microarray data from mild-moderate non-smoking asthma patients and healthy non-smoking subjects were obtained from a previous study as described. […] Microarray data was analysed in the present study to determine whether genes were differentially regulated within the asthmatic group. Also, the microarray data was analyzed to determine whether other genes were co-regulated with top asthma-related, IL-13 induced genes. […]

[2] = 19 subjects, one week of ICS treatment, vast majority of genes
[3] = individual subjects after one week of ICS treatment

## CCC(=O)O[C@]1(C(=O)SCF)[C@H](C)C[C@H]2[C@@H]3C[C@H](F)C4=CC(=O)C=C[C@]4(C)[C@@]3(F)[C@@H](O)C[C@@]21C [fluticasone, fluticasone propionate]
Subjects with asthma; IL-13 high asthma subphenotype
  Improvement in FEV1 as compared to subjects treated with placebo: significant improvements in FEV1
Subjects with asthma; IL-13 high group, week 9
  Improvements in FEV1 after a one week run out period off drug: lost
Subjects with asthma; IL-13 low asthma subphenotype
  Improvement in FEV1 as compared to subjects treated with placebo: did not
Subjects with asthma; IL13 Signature Low
  ΔFEV1 with fluticasone at 4 weeks: 0.03 ± 0.12 L
  ΔFEV1 with fluticasone 8 weeks: 0.04 ± 0.12 L
Subjects with asthma; IL-13 Signature High
  ΔFEV1 with fluticasone at 4 weeks: 0.35 ± 0.2 L
  ΔFEV1 with fluticasone 8 weeks: 0.25 ± 0.23 L
[1]; [2]
  Expression of IL-4/13 signature genes (Table 2) in asthmatic bronchial airway epithelium: significantly downregulated
  Expression of IL-13 signature genes (Table 9) in asthmatic bronchial airway epithelium: significantly downregulated
[1]; [3]
  PRR4 expression in bronchial epithelial brushings: not substantially downregulated
  RUNX2 expression in bronchial epithelial brushings: not substantially downregulated
[1]; subjects with IL-13 high asthma at baseline, after one week of fluticasone treatment
  Hierarchical clustering by periostin, CLCA1 and serpinB2 expression in bronchial epithelium: clustered with subjects who were IL-13 low at baseline
